{"source": "patent US6989245B2", "about": "“Screening, diagnostic and therapeutic methods relating to RIZ” (The Burnham Institute, priority 2001, dated 2006)", "key": {"[1]": {"test_system": "histone H1 phosphorylation in MCF7 cells", "assay": "H1 phosphorylation in MCF7 cells by western blot", "format": "cell-based, human", "conditions": "E2 48 hr", "description": "MCF-7 and T47-D breast cancer cells were grown in 15 cm dishes in DMEM with 5% FCS, and 2 mM L-glutamine. Subconfluent cells (4×10^6) were then cultured in DMEM without phenol red, serum or hormones for an additional 3 days, during which media was changed twice daily. Cells were incubated for 24 h with or without hormones (50 nM for E2 and 100 nM for R5020) and infected with an adenovirus vector containing RIZ1 (AdRIZ1; at a concentration of 1×10^10 viral particles/15 cm dish) or the empty vector (AdNull) (He et al., Cancer Res. 58:4238-4244 (1998)). Cells were then grown for an additional 48 h in DMEM without phenol red supplemented with 5% charcoal-treated FCS (Omega Scientific). Cells were harvested and proceeded to immunoprecipitation and immunoblot essentially as described (Buyse et al., Proc. Natl. Acad. Sci. U.S.A. 92:4467-4471 (1995); Liu et al., J. Biol. Chem. 272:2984-2991 (1997)). […]\nBecause H1 phosphorylation has been linked with transcriptional activation (Bhattacharjee et al., Mol. Cell. Biol. 21:5417-5425 (2001); Dou and Gorovsky, Mol. Cell. 6:225-231 (2000)), it was next asked whether E2 or RIZ1 can enhance H1 phosphorylation. Histones were extracted from MCF7 cells infected with AdRIZ1 or control virus and analyzed by western blot analysis using antibodies that recognize specifically phosphorylated H1."}, "[2]": {"test_system": "progesterone receptor gene expression in luminal epithelial cells of the uterus", "assay": "E2 regulation of uterine progesterone receptor expression (immunohistochemistry)", "format": "in vivo, mice", "excerpt": "For RIZ staining, the RIZ rabbit antiserum KG7.1S (Buyse et al., Proc. Natl. Acad. Sci. U.S.A. 92:4467-4471 (1995)) was used at an optimal dilution of 1/200. For ERα staining the polyclonal rabbit anti-ERα antibody (sc-542 Santa Cruz) was used at a dilution of 1/250, and for PR staining the polyclonal rabbit anti-PR antibody (A0098 DAKO) was used at a dilution of 1/100, essentially as described (Tibbetts et al., Biol. Reprod. 59:1143-1152 (1998)). Tissues were fixed in Bouin's solution and processed by routine methods for embeddement in paraffin and sectioning (5 μm). […]\nTo investigate E2-mediated increments in proliferation and hyperemia of uteri and changes in the cellular organization of the vaginal epithelium (Xu et al., Science 279:1922-1925 (1998)), 8-week old female RIZ−/− and RIZ+/+mice were ovariectomized (OVXed). […] The mice were then sacrificed at day 18 and the uterine wet weight was measured, and vaginal tissue was collected. […] The thickness of the vaginal epithelium and the cornified layer was photographed and measured as described in FIG. 4 using the Spot 3.2.4. software (Diagnostic Instruments).\nThe epithelial and stromal compartments of the uterus were then analyzed for E2-induced changes in progesterone receptor expression. […]"}, "[3]": {"test_system": "RIZ1 HMT activity", "assay": "HMT activity of RIZ1 immunoprecipitated from E2 treated MCF-7 cells", "format": "cell-based, human", "conditions": "RIZ1 immunoprecipitates", "description": "(§1) Methylation reactions (30-40 μl) contained 20 mM Tris-HCl (pH8.0), 0.2 M NaCl, 0.4 mM EDTA, affinity-purified GST-RIZ1 or immunoprecipitation products, free histones (20-40 μg) purified from acid extraction of human cancer cells (A549 or U2OS), and 3 μl (1.65 μCi and 21 pmole)[methyl-^3H]-adenosyl-methionine (Amersham-Pharmacia). Nuclear extracts were prepared according to standard procedures and used for immunoprecipitation. Antisera used for immunoprecipitation were anti-KG7.1S and preimmune serum as described previously (Buyse et al., Proc. Natl. Acad. Sci. U.S.A. 92:4467-4471 (1995)). Similar HMT activity has also been observed with immunoprecipitates using a different serum (data not shown), 1715, which was described previously (Steele-Perkins et al., Genes Dev. 15:2250-2262 (2001)). Various amount of SAH (Sigma) were added in some methylation reactions.\nTo help understand this apparent paradox, the estrogen effects on RIZ1 HMT activity were examined. Nuclear extracts from control and E2 treated MCF-7 cells were immunoprecipitated by RIZ1 serum anti-KG7.1S or preimmune serum. As expected, HMT activity (labeling of H3 and H1) was detected in the immunoprecipitates of RIZ1 serum but not preimmune serum (FIG. 7A, lanes 1 and 3). […] Thus, E2 appears to regulate RIZ1 HMT activity in a selective way, inhibiting specifically methylation of H3 but not H1."}, "[4]": {"test_system": "uterus of OVXed mice", "assay": "uterine growth in response to E2 in ovariectomized (OVXed) mice", "format": "in vivo", "conditions": "E2 0.8 ng/g/day S.C. three days", "description": "To investigate E2-mediated increments in proliferation and hyperemia of uteri and changes in the cellular organization of the vaginal epithelium (Xu et al., Science 279:1922-1925 (1998)), 8-week old female RIZ−/− and RIZ+/+mice were ovariectomized (OVXed). At day 15-17 following OVX, mice were treated with S.C. injections of E2 (0.8 ng/g/day; Sigma) or with the vehicle (0.1 ml corn oil) alone for three days. The mice were then sacrificed at day 18 and the uterine wet weight was measured, and vaginal tissue was collected. The tissues were processed as above and vaginal specimens were stained with routine H & E and uterine specimens for PR expression. The thickness of the vaginal epithelium and the cornified layer was photographed and measured as described in FIG. 4 using the Spot 3.2.4. software (Diagnostic Instruments).\nThe RIZ1 mutant mice are deficient in RIZ1, but not RIZ2, and therefore lack specifically any PR-domain related functions of the gene (Steele-Perkins et al., Genes Dev. 15:2250-2262 (2001)). These animals are viable and fertile and show no gross developmental defects (Steele-Perkins et al., supra (2001)). To determine the physiological role of RIZ1 in steroid hormone action, uterine growth in response to E2 was first examined in ovariectomized (OVXed) mice (Lubahn et al., Proc. Natl. Acad. Sci. USA 90:11162-11166 (1993)). Wild-type or heterozygous RIZ1 mutant mice responded to E2 treatment with a 5.3±0.5 and 5.4±0.4 fold increase in uterine wet weight. […] Uterine response to mechanical traumatization (decidual stimulation) is mainly a progesterone receptor-dependent process (Lydon et al., Genes Dev. 9:2266-2278 (1995)). OVXed mice were treated with a high dose of progesterone and a low dose of E2, followed by mechanical stimulation of the left uterine horn of each animal. The unstimulated […] uterine horn served as a control."}, "[5]": {"target": "protein methyltransferase (PMT)", "conditions": "universal inhibitor of PMT; cited from earlier work"}, "[6]": {"target": "T1, RIZ1 methyltransferase (Homo sapiens, UniProt Q13029, DUP703-703)", "T1 construct": "Enzyme activity of full-length RIZ1 protein from mammalian cells was next assayed; expressed in transfected cells; host or cells: U2OS human osteosarcoma cells infected with AdRIZ1 adenovirus", "T1 sequence (Q13029 with tags, fused parts or gaps DUP703-703)": "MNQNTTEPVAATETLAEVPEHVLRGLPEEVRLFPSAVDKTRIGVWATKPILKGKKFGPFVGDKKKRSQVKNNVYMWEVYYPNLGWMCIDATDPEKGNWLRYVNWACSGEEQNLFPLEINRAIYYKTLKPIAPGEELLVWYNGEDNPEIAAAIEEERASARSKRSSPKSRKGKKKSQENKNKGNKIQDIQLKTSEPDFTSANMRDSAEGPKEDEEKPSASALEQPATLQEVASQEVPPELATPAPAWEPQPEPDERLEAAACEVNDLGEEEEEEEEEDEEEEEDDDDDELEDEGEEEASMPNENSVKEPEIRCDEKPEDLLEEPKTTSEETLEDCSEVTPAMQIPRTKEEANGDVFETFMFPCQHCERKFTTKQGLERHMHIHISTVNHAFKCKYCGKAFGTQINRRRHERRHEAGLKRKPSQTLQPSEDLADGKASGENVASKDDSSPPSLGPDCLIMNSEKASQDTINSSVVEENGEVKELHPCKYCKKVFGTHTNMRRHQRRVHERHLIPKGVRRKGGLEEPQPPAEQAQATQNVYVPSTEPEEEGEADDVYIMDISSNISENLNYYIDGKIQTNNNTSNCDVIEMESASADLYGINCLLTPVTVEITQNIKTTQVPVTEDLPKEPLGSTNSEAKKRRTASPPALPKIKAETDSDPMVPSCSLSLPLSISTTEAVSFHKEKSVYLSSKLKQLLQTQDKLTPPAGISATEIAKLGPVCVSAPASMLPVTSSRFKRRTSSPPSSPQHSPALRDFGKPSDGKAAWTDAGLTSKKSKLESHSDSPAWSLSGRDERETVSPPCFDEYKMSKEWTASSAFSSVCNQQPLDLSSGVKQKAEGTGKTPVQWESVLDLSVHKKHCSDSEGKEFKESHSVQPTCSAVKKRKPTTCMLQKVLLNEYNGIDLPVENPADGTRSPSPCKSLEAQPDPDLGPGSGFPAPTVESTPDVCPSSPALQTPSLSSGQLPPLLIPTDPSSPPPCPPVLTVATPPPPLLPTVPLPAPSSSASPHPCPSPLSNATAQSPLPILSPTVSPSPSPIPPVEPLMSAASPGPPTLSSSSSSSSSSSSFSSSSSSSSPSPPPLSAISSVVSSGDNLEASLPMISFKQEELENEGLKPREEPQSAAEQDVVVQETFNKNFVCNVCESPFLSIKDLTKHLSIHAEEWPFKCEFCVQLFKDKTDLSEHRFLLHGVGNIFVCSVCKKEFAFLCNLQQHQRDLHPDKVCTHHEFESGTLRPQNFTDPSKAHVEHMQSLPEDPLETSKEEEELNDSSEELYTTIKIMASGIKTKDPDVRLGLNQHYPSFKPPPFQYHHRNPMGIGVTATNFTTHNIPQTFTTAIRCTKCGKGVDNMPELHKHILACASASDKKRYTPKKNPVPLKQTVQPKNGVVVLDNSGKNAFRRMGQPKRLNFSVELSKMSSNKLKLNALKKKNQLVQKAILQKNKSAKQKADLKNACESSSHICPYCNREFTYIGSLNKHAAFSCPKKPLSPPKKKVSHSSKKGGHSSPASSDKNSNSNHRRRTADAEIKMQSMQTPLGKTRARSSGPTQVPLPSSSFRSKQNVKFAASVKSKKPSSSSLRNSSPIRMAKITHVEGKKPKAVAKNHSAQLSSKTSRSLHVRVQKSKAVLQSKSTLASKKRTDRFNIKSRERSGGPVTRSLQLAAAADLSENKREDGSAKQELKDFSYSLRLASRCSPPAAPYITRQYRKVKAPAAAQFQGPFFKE", "assay": "in vitro methylation of histones by immunoprecipitated RIZ1", "format": "biochemical", "conditions": "0.42 μM of 3H-SAM", "description": "as §1\nIn view of RIZ1's role in tumor suppression, it was determined whether S-adenosylhomocysteine (SAH), an analog inhibitor of SAM-dependent methyltransferases whose abnormal accumulation is linked with carcinogenesis, can inhibit RIZ1 enzyme activities. The effect of SAH on the in vitro methylation of histones by immunoprecipitated RIZ1 was tested. A methylation assay was performed in the presence of 0, 0.5 and 5 μM of SAH and 0.42 μM of 3H-SAM."}, "[7]": {"test_system": "RIZ1 HMT activity", "assay": "HMT activity of RIZ1 immunoprecipitates from TPA treated U937 cells", "format": "cell-based, human", "conditions": "24 hr following TPA treatment", "description": "as §1\nTo further study the contrasting behavior of H1 and H3 methylation, regulation of RIZ1 HMT activity by cell growth was examined, using 12-O-tetradecanoyl-phorbol-13-acetate (TPA) treatment of U937 myeloid leukemic cells as a model system. U937 cells undergo growth arrest and terminal differentiation into monocytes when exposed to TPA. This cell model was selected for study because it has been shown in these cells that RIZ gene expression is only marginally regulated by TPA. […]"}, "[8]": {"test_system": "prostate of orchiectomized male mice", "assay": "prostate growth in orchiectomized male mice treated with testosterone", "format": "in vivo", "conditions": "testosterone 3 mg/kg/day S.C. 7 days", "description": "In order to evaluate the response to testosterone, twelve week old male mice were orchiectomized (ORCed) and testicles were wet weighed (Xu et al., Science 279:1922-1925 (1998)). Nine days following ORC, mice were treated during days 9-15 with S.C. injections of testosterone (3 mg/kg/day, Sigma) or vehicle alone (0.1 ml corn oil). On day 16, mice were sacrificed and the prostate and the pars prostate of the urethra (for technical reasons) were removed and wet weighed.\nEight days after orchiectomization, prostates in both wild-type and mutant animals regressed. Injection of testosterone for 7 days stimulated prostate growth in wild-type animals as well as in RIZ1 null animals. Wild-type and RIZ1 null mutant animals had similar ratios of the weight of prostate and urethra to body weight (1.19±0.03 vs. 1.14±0.03; n=10 and 9 mice for +/+ and −/−, respectively; p=0.23). They also had similar ratios of testis weight to body weight (7.7±0.4 vs. 7.4±0.4; n=14 for both genotypes; p=0.58)."}}}
{"smiles": "C[C@]12CC[C@@H]3c4ccc(O)cc4CC[C@H]3[C@@H]1CC[C@@H]2O", "note": "[E2, estradiol]", "values": [{"measurement": "H1 phosphorylation", "setting": "[1]", "result": "increased"}, {"measurement": "repression of progesterone receptor gene expression", "setting": "[2]; in the absence of RIZ1", "result": 2, "unit": "fold"}, {"measurement": "repression of progesterone receptor gene expression", "setting": "[2]; in the presence of RIZ1", "result": "~20", "unit": "fold"}, {"measurement": "H1 methylation by RIZ1", "setting": "[3]", "result": "maintained or slightly enhanced"}, {"measurement": "H3 methylation by RIZ1", "setting": "[3]", "result": "decreased"}, {"measurement": "fold increase in uterine wet weight", "setting": "[4]; heterozygous RIZ1 mutant OVXed mice", "result": "5.4±0.4", "unit": "fold"}, {"measurement": "fold increase in uterine wet weight", "setting": "[4]; homozygous RIZ1 mutant OVXed mice", "result": "about 3.7±0.4 fold"}, {"measurement": "fold increase in uterine wet weight", "setting": "[4]; wild-type OVXed mice", "result": "5.3±0.5", "unit": "fold"}]}
{"smiles": "Nc1ncnc2c1ncn2[C@@H]1O[C@H](CSCC[C@H](N)C(=O)O)[C@@H](O)[C@H]1O", "note": "[SAH, S-adenosylhomocysteine]", "values": [{"measurement": "Ki", "setting": "[5]", "result": "5 to 12", "unit": "µM"}, {"measurement": "Histone methylation by RIZ1", "setting": "[6]; 0.5 μM of SAH", "result": "partially inhibited"}, {"measurement": "Histone methylation by RIZ1", "setting": "[6]; 5 μM of SAH", "result": "completely inhibited"}]}
{"smiles": "CCCCCCCCCCCCCC(=O)O[C@@H]1[C@@H](C)[C@@]2(O)[C@@H](C=C(CO)C[C@]3(O)C(=O)C(C)=C[C@@H]23)[C@@H]2C(C)(C)[C@]12OC(C)=O", "note": "[TPA, 12-O-tetradecanoyl-phorbol-13-acetate]", "values": [{"measurement": "H1 methylation by RIZ1", "setting": "[7]", "result": "slightly decreased"}, {"measurement": "H3 methylation by RIZ1", "setting": "[7]", "result": "increased"}]}
{"smiles": "C[C@]12CC[C@H]3[C@@H](CCC4=CC(=O)CC[C@@]43C)[C@@H]1CC[C@@H]2O", "note": "[testosterone]", "values": [{"measurement": "ratio of the weight of prostate and urethra to body weight", "setting": "[8]; RIZ1 null mutant orchiectomized mice, n=9", "result": "1.14±0.03"}, {"measurement": "ratio of the weight of prostate and urethra to body weight", "setting": "[8]; wild-type orchiectomized mice, n=10", "result": "1.19±0.03"}]}
